Test results reported in patent publication US6770597B2, “Benzohydrazide derivatives as herbicides and desiccant compositions containing them” (Ishihara Sangyo Kaisha, Ltd., priority 2002, dated 2004).

Experiments:
Type in all cases: in vivo
[1] = system: barnyardgrass (Echinochloa crus-galli, ECHCG); assay: Greenhouse herbicide screen, post-emerge application, phytotoxicity rating; conditions: POST emergent, 14 days after application, scale 0-100
From the text: (§1) A standard greenhouse herbicide activity screening system was used to evaluate the herbicidal efficacy and crop safety of these test compounds. Seven broadleaf weed species including redroot pigweed (Amaranthus retrofiexus, AMARE), velvetleaf (Abutilon theophrasti, ABUTH), sicklepod (Cassia obtusifolia, CASOB), ivyleaf morningglory (Ipomoea hederacea, IPOHE), lambsquarters (Chenopodium album, CHEAL), common ragweed (Ambrosia artemisiifolia L., AMBEL), and cocklebur (Xanthium strumarium, XANST) were used as test species. Four grass weed species including green foxtail (Setaria viridis, SETVI), barnyardgrass (Echinochloa crus-galli, ECHCG), johnsongrass (Sorghum halepense, SORHA), and large crabgrass (Digitaria sanguinalis, DIGSA) were also used. In addition, four crop species, field corn (Zea mays L., var. Dekalb 535, CORN), soybean (Glycine max L., var. Pella 86, SOY), upland rice (Oryza sp., var.Cocodrie, RICE) and wheat (Triticum aestivum L.) were included.
(§2) All plants were grown in 10 cm square plastic pots which were filled with a sandy loam soil mix. For pre-emerge tests, seeds were planted one day prior to application of the test compounds. For post-emerge tests, seeds were planted 8-21 days prior to the test to allow emergence and good foliage development prior to application of the test substances. At the time of the post-emerge application, plants of all species were usually at the 2-3 leaf stage of development.
(§3) All test compounds were dissolved in acetone and applied to the test units in a volume of 187 l/ha. Test materials were applied at rates ranging from 15 g ai/ha to 1000 g ai/ha using a track sprayer equipped with a TJ8001E even flow flat fan spray nozzle. Plants were arranged on a shelf so that the top of the canopy (post-emerge) or top of the soil surface (pre-emerge) was 40-45 cm below the nozzle. Pressurized air was used to force the test solution through the nozzle as it was mechanically advanced (via electrically driven chain drive) over the top of all test plants/pots. This application simulates a typical commercial field herbicide application.
(§4) Pre-emergence tests were top watered immediately after treatment to incorporate the test materials, then routinely top-watered for normal growth. Post-emerge test units were always bottom-watered.
(§5) At 14 days after application of the test materials, phytotoxicity ratings were recorded. A rating scale of 0-100 was used as previously described in Research Methods in Weed Science, 2nd edition, B. Truelove, Ed., Southern Weed Science Society, Auburn University, Auburn, Ala., 1977. Briefly, “0” corresponds to no damage and “100” corresponds to complete death of all plants in the test unit. This scale was used both to determine efficacy against weed species and damage to crop species. Herbicide activity data for various compounds of this invention, which are shown by compound No. in Tables 1-12, are shown in Tables 13 and 14.

[2] = system: cocklebur (Xanthium strumarium, XANST); assay: as above; conditions: POST emergent, 14 days after application, scale 0-100
From the text: as §1, §2, §3, §4, §5

[3] = system: common ragweed (Ambrosia artemisiifolia L., AMBEL); assay: as above; conditions: POST emergent, 14 days after application, scale 0-100
From the text: as §1, §2, §3, §4, §5

[4] = system: green foxtail (Setaria viridis, SETVI); assay: as above; conditions: POST emergent, 14 days after application, scale 0-100
From the text: as §1, §2, §3, §4, §5

[5] = system: ivyleaf morningglory (Ipomoea hederacea, IPOHE); assay: as above; conditions: POST emergent, 14 days after application, scale 0-100
From the text: as §1, §2, §3, §4, §5

[6] = system: johnsongrass (Sorghum halepense, SORHA); assay: as above; conditions: POST emergent, 14 days after application, scale 0-100
From the text: as §1, §2, §3, §4, §5

[7] = system: lambsquarters (Chenopodium album, CHEAL); assay: as above; conditions: POST emergent, 14 days after application, scale 0-100
From the text: as §1, §2, §3, §4, §5

[8] = system: large crabgrass (Digitaria sanguinalis, DIGSA); assay: as above; conditions: POST emergent, 14 days after application, scale 0-100
From the text: as §1, §2, §3, §4, §5

[9] = system: redroot pigweed (Amaranthus retrofiexus, AMARE); assay: as above; conditions: POST emergent, 14 days after application
From the text: as §1, §2, §3, §4, §5

[10] = system: sicklepod (Cassia obtusifolia, CASOB); assay: as above; conditions: POST emergent, 14 days after application, scale 0-100
From the text: as §1, §2, §3, §4, §5

[11] = system: velvetleaf (Abutilon theophrasti, ABUTH); assay: as above; conditions: POST emergent, 14 days after application, scale 0-100
From the text: as §1, §2, §3, §4, §5

[12] = system: barnyardgrass (Echinochloa crus-galli, ECHCG); assay: Greenhouse herbicide screen, pre-emerge application, phytotoxicity rating; conditions: PRE emergent, 14 days after application, rating scale 0-100
From the text: as §1, §2, §3, §4, §5

[13] = system: cocklebur (Xanthium strumarium, XANST); assay: as above; conditions: PRE emergent, 14 days after application, rating scale 0-100
From the text: as §1, §2, §3, §4, §5

[14] = system: common ragweed (Ambrosia artemisiifolia L., AMBEL); assay: as above; conditions: PRE emergent, 14 days after application, rating scale 0-100
From the text: as §1, §2, §3, §4, §5

[15] = system: green foxtail (Setaria viridis, SETVI); assay: as above; conditions: PRE emergent, 14 days after application, rating scale 0-100
From the text: as §1, §2, §3, §4, §5

[16] = system: ivyleaf morningglory (Ipomoea hederacea, IPOHE); assay: as above; conditions: PRE emergent, 14 days after application, rating scale 0-100
From the text: as §1, §2, §3, §4, §5

[17] = system: johnsongrass (Sorghum halepense, SORHA); assay: as above; conditions: PRE emergent, 14 days after application, rating scale 0-100
From the text: as §1, §2, §3, §4, §5

[18] = system: lambsquarters (Chenopodium album, CHEAL); assay: as above; conditions: PRE emergent, 14 days after application, rating scale 0-100
From the text: as §1, §2, §3, §4, §5

[19] = system: large crabgrass (Digitaria sanguinalis, DIGSA); assay: as above; conditions: PRE emergent, 14 days after application, rating scale 0-100
From the text: as §1, §2, §3, §4, §5

[20] = system: redroot pigweed (Amaranthus retrofiexus, AMARE); assay: as above; conditions: PRE emergent, 14 days after application, rating scale 0-100
From the text: as §1, §2, §3, §4, §5

[21] = system: sicklepod (Cassia obtusifolia, CASOB); assay: as above; conditions: PRE emergent, 14 days after application, rating scale 0-100
From the text: as §1, §2, §3, §4, §5

[22] = system: velvetleaf (Abutilon theophrasti, ABUTH); assay: as above; conditions: PRE emergent, 14 days after application, rating scale 0-100
From the text: as §1, §2, §3, §4, §5

## CN(N=C(C(C)(C)C)C(C)(C)C)C(=O)c1cc(-n2c(=O)cc(C(F)(F)F)n(C)c2=O)c(F)cc1Cl [Compound 6-8, 2-chloro-5-(3,6-dihydro-3-methyl-2,6-dioxo-4-(trifluoromethyl)-1(2H)-pyrimidinyl)-4-fluoro-benzoic acid, 2-[1-(1,1-dimethylethyl)-2,2-dimethylpropylidene]-1-methylhydrazide]
[1]; 63 g ai/ha
  phytotoxicity rating ECHCO: 60
[1]; 250 g ai/ha
  phytotoxicity rating ECHCO: 85
[2]; 63 g ai/ha
  phytotoxicity rating XANST: 35
[2]; 250 g ai/ha
  phytotoxicity rating XANST: 100
[3]; 63 g ai/ha
  phytotoxicity rating AMBEL: 70
[3]; 250 g ai/ha
  phytotoxicity rating AMBEL: 70
[4]; 63 g ai/ha
  phytotoxicity rating SETVI: 50
[4]; 250 g ai/ha
  phytotoxicity rating SETVI: 75
[5]; 63 g ai/ha
  phytotoxicity rating IPOHE: 100
[5]; 250 g ai/ha
  phytotoxicity rating IPOHE: 100
[6]; 63 g ai/ha
  phytotoxicity rating SORHA: 65
[6]; 250 g ai/ha
  phytotoxicity rating SORHA: 95
[7]; 63 g ai/ha
  phytotoxicity rating CHEAL: 80
[7]; 250 g ai/ha
  phytotoxicity rating CHEAL: 100
[8]; 63 g ai/ha
  phytotoxicity rating DIGSA: 50
[8]; 250 g ai/ha
  phytotoxicity rating DIGSA: 60
[9]; 63 g ai/ha, scale 0-100 (0 no damage, 100 complete death)
  phytotoxicity rating AMARE: 99
[9]; 250 g ai/ha, scale 0-100
  phytotoxicity rating AMARE: 100
[10]; 63 g ai/ha
  phytotoxicity rating CASOB: 50
[10]; 250 g ai/ha
  phytotoxicity rating CASOB: 60
[11]; 63 g ai/ha
  phytotoxicity rating ABUTH: 50
[11]; 250 g ai/ha
  phytotoxicity rating ABUTH: 100
[12]; 63 g ai/ha
  phytotoxicity rating ECHCG: 30
[12]; 250 g ai/ha
  phytotoxicity rating ECHCG: 85
[13]; 63 g ai/ha
  phytotoxicity rating XANST: 0
[13]; 250 g ai/ha
  phytotoxicity rating XANST: 70
[14]; 63 g ai/ha
  phytotoxicity rating AMBEL: 0
[14]; 250 g ai/ha
  phytotoxicity rating AMBEL: 99
[15]; 63 g ai/ha
  phytotoxicity rating SETVI: 55
[15]; 250 g ai/ha
  phytotoxicity rating SETVI: 99
[16]; 63 g ai/ha
  phytotoxicity rating IPOHE: 60
[16]; 250 g ai/ha
  phytotoxicity rating IPOHE: 100
[17]; 63 g ai/ha
  phytotoxicity rating SORHA: 55
[17]; 250 g ai/ha
  phytotoxicity rating SORHA: 100
[18]; 63 g ai/ha
  phytotoxicity rating CHEAL: 100
[18]; 250 g ai/ha
  phytotoxicity rating CHEAL: 100
[19]; 63 g ai/ha
  phytotoxicity rating DIGSA: 60
[19]; 250 g ai/ha
  phytotoxicity rating DIGSA: 95
[20]; 63 g ai/ha
  phytotoxicity rating AMARE: 100
[20]; 250 g ai/ha
  phytotoxicity rating AMARE: 100
[21]; 63 g ai/ha
  phytotoxicity rating CASOB: 20
[21]; 250 g ai/ha
  phytotoxicity rating CASOB: 70
[22]; 63 g ai/ha
  phytotoxicity rating ABUTH: 99
[22]; 250 g ai/ha
  phytotoxicity rating ABUTH: 99
